pEC50: −log10 of the molar value. Some results are limits rather than exact numbers.

In one data set the test system is CYP2B6. Kind of data set: Induction of CYP2B6 in frozen human hepatocytes. It counts as in vitro ADME. Particulars: 72 h induction, concentration and readout not stated; for CYP2B6 Induction percentage relative to positive control (%): positive control Phenobarbital. As to the method:
(§1) Experimental purpose: Using frozen human hepatocytes as the test system, the induction effects of the test substances on CYP1A2, CYP2B6 and CYP3A4 were evaluated from two aspects of enzyme activity and mRNA level.
(§2) Experimental method: 24 hours after cell plating, induction was started by adding medium containing the test compound (test concentrations were 10, 1, and 0.1 μM), and fresh drug-containing medium was replaced every 24 hours. After 72 hours of induction, the medium was replaced with medium containing CYP1A2, CYP2B6, and CYP3A4 specific substrates for 30 minutes of incubation. 100 μL was taken for treatment, and the labeled metabolites of the substrates were detected to evaluate the enzyme activity level. Finally, the cells were lysed and reverse transcribed, and the expression levels of CYP1A2, CYP2B6 and CYP3A4 genes in the cells were evaluated by real-time quantitative PCR.
(§3) The induction fold of the test compound compared with the blank control and the induction percentage of the test compound compared with the positive control were used as the basis for evaluating the induction potential of the test compound. Among them, the positive control for CYP1A2 is Omeprazole; the positive control for CYP2B6 is Phenobarbital; the positive control for CYP3A4 is Rifampicin.

Data set [1] can be described thus: Cell toxicity (Celltiter-Glo) in HEK-Blue hTLR8 cells. Particulars: human. (In general: Cellular ATP, detected with luciferase, serves as a proxy for viable cell number.)
Procedure: (§5) Purpose: HEK-Blue™ hTLR7 and HEK-Blue™ hTLR8 cells were used to detect the agonist and cytotoxic activities of compounds against hTLR7 and hTLR8.
(§6) The experimental steps were as shown below: • 1) Preparation of compound: The compound was prepared into a 20 mM stock solution with DMSO, and then the stock solution was diluted 3-fold in a gradient and added to a 96-well plate, for a total of 10 concentrations, with duplicate wells for each concentration. For negative control wells, 0.5 μL DMSO was added to each well. The final DMSO concentration was 0.5%. • 2) HEK-Blue™ hTLR7 or HEK-Blue™ hTLR8 cells were suspended in culture medium and then seeded into 96-well plates containing compounds at a cell count of 50,000 per well. The compounds and cells were incubated for 24 h at 37° C., 5% Co2. • 3) QUANTI-Blue was used for the detection solution: to a mixture of 1 mL of QB reagent and 1 mL of QB buffer was added 98 mL of sterile water, the mixture was mixed and dissolved, and then placed at room temperature for 10 min. • 4) Activity test of the compound: 20 μL of the culture supernatant in step 2) was added to each well of a 96-well plate containing 180 μL of QUANTI-Blue detection solution. After incubation at 37° C. for 1 h, the absorbance at 650 nm (OD650) was detected using a multifunctional microplate reader Flextation III. • 5) Detection of cell activity: The chemiluminescent signal (RLU) was detected using the multifunctional microplate reader Flextation III according to the instructions of Celltiter-Glo. • 6) Data analysis
Detection of cell activity: The calculation formula for cell activity % is as follows.
The cell activity % values were analyzed using GraphPad Prism software, and the compound dose-effect curves were fitted to calculate the CC50 values of the compounds.
Cell activity %=RLU compound/RLU DMSO Control*100%
In the next data set the target is T1, hTLR7 (Homo sapiens, UniProt Q9NYK1).
T1 construct: expressed in transfected cells; host or cells: HEK-Blue hTLR7 cells
T1 sequence (Q9NYK1 27-1049): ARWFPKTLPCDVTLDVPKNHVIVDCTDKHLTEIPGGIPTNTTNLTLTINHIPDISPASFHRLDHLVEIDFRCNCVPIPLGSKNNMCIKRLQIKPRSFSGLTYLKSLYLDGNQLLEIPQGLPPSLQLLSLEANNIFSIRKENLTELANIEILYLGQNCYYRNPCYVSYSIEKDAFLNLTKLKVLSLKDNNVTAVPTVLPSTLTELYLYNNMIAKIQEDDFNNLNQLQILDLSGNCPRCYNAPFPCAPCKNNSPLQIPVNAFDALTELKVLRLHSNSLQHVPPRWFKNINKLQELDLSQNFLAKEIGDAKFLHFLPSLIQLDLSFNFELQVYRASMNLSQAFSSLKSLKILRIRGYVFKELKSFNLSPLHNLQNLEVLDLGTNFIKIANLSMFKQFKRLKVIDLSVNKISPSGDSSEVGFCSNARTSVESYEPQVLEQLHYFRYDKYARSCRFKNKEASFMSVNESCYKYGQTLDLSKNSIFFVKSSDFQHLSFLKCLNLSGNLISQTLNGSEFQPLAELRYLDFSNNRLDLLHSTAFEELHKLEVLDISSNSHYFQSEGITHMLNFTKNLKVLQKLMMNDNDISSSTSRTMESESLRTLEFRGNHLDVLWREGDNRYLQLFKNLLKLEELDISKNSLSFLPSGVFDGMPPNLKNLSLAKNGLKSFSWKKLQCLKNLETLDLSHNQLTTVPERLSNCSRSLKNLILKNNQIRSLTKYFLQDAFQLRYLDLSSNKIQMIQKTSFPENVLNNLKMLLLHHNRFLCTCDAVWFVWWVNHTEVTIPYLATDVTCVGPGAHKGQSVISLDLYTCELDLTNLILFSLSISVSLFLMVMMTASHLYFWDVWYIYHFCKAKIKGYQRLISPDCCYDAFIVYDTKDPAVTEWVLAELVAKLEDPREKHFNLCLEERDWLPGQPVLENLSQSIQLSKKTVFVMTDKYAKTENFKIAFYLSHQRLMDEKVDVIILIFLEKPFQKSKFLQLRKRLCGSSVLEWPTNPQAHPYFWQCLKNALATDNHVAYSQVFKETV
Kind of data set: Agonistic activity on human TLR7 in HEK-Blue hTLR7 cells (QUANTI-Blue). The class given is cell-based. Particulars: 24 h incubation, OD650, read-out: hTLR 7 EC50.

Data set [2] addresses T2, CYP1A2 (Homo sapiens, UniProt P05177).
T2 construct: from tissue; host or cells: human liver microsomes
T2 sequence (P05177 1-516): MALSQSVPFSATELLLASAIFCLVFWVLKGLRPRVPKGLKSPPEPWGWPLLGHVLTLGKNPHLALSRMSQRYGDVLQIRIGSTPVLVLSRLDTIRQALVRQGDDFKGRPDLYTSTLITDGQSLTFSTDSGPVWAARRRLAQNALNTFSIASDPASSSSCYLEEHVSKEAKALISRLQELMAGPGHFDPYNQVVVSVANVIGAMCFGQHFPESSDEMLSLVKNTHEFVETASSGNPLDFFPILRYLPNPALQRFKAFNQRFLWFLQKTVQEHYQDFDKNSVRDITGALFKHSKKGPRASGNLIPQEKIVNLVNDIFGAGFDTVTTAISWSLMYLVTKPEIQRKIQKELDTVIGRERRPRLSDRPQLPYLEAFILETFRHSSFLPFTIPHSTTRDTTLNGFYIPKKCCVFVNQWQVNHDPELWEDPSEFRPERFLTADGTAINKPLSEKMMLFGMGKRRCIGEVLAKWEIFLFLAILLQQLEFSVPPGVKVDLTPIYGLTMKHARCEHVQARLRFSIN
Kind of data set: Inhibition of human liver microsomal CYP1A2. The class given is in vitro ADME. Particulars: human liver microsomes, 10 μM test substance; read-out: Relative inhibition rate (%) CYP1A2. On the procedure:
(§4) Experimental purpose: The inhibitory effects of the test compounds on the major metabolizing enzymes CYP1A2, CYP2C19, CYP2D6 and CYP3A4 in microsomes were evaluated using the human liver microsomal system. Experimental method: The test substance was incubated with a suspension of human liver microsomes containing cytochrome P450 enzymes CYP1A2, CYP2C19, CYP2D6 and CYP3A4 at a concentration of 10 μM in the final incubation system. The known substrates were metabolized by the corresponding single enzymes to generate specific metabolites, and the metabolites were determined by UPLC-MS/MS method. The relative inhibition rate (%) was calculated by the percentage reduction of metabolite production by the test compound and solvent DMSO in the same time period. N is the concentration value of the probe substrate metabolite and it is assumed that the […] with or without inhibitor at 0 min is 0. N+inh is the metabolite concentration in the group with inhibitor, and Nveh is the metabolite concentration in the group without inhibitor. The results of the inhibition test of the compounds of the present invention on human liver microsomal CYP enzymes are shown in Table C.

For data set [3], the system named is CYP1A2. Kind of data set: Induction of CYP1A2 in frozen human hepatocytes. It counts as in vitro ADME. Particulars: 72 h induction, concentration and readout not stated. As to the method: as §1, §2, §3
For a further data set, the target named is T3, CYP2D6 (Homo sapiens, UniProt P10635).
T3 construct: from tissue; host or cells: human liver microsomes
T3 sequence (P10635 whole entry): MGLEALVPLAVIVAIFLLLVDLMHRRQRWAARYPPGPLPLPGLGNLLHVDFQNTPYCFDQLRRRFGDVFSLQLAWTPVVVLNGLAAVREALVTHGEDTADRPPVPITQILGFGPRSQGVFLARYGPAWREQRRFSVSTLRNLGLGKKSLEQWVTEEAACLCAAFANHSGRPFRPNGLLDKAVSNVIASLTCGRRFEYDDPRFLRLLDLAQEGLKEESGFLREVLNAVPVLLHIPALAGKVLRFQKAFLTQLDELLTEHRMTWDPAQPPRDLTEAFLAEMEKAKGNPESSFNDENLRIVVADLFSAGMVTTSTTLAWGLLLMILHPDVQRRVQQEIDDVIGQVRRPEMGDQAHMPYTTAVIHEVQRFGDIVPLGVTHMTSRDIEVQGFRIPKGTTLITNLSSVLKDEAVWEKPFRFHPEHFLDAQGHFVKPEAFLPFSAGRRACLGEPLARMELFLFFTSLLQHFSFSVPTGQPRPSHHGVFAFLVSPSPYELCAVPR
Put plainly: Inhibition of human liver microsomal CYP2D6. It counts as in vitro ADME. The conditions noted are these: human liver microsomes, 10 μM test substance; read-out: Relative inhibition rate (%) CYP2D6. On the procedure: as §4

Procedure for hTLR7: as §5, §6
Activity of compounds: OD650 values were analyzed using GraphPad Prism software, and the compound dose-effect curves were fitted to calculate the EC50 values of the compounds.

One may read the CC50 as the concentration at which the toxic effect on the cells reaches its halfway point. The pEC50 is the EC50 on a negative log10 scale, so that one unit is a factor of ten. For orientation: inhibition means the change of the read-out against control, counted positive when it falls. Regarding `C=CCCN(C)Cc1c[nH]c(=O)cc1-c1ccc2c(N[C@@](C)(CO)CCCC)nc(N)nc2c1` [Example 35], in the data set with CYP2B6, the “CYP2B6 Induction fold relative to blank control” value was 0.4 and the “CYP2B6 Induction percentage relative to positive control (%)” value is given as −5.6%. Besides, in data set [1], the CC50 at 24 h was above 100 µM. In addition, the pEC50 at hTLR7 is 4.16. The inhibition at 10 µM at CYP1A2 [2] was found to be 2.7%. Moreover, the “CYP1A2 Induction fold relative to blank control” value with CYP1A2 [3] came out at 0.4. Further, the inhibition at 10 µM at CYP2D6 came to 31.4%.

Consider `CCCC[C@](C)(CO)Nc1nc(N)nc2cc(-c3cc(=O)[nH]cc3CN(C)CCOC)cnc12` [Example 21], for which, in the data set on CYP2B6, the “CYP2B6 Induction fold relative to blank control” value was determined as 0.5 and the “CYP2B6 Induction percentage relative to positive control (%)” value was −4.8%. The CC50 at 24 h in data set [1] was above 100 µM. Besides, the pEC50 at hTLR7 was 4.04. Besides, the inhibition at 10 µM on CYP1A2 [2] is -4.1%. Moreover, the “CYP1A2 Induction fold relative to blank control” value in the data set on CYP1A2 [3] is given as 0.6. At CYP2D6, the inhibition at 10 µM amounted to 9.5%.

Take `CCCCN(C)Cc1c[nH]c(=O)cc1-c1cnc2c(N[C@@](C)(CO)CCCC)nc(N)nc2c1` [Example 28, (R)-4-(2-Amino-4-((1-hydroxy-2-methylhexan-2-yl)amino)pyrido[3,2-d]pyrimidin-7-yl)-5-((butyl(methyl)amino)methyl)pyridin-2(1H)-one]: the “CYP2B6 Induction fold relative to blank control” value in the data set on CYP2B6 amounted to 0.9. For the same compound, the “CYP2B6 Induction percentage relative to positive control (%)” value with CYP2B6 is given as −0.7%. In addition, in data set [1], the CC50 at 24 h was above 100 µM. The pEC50 on hTLR7 is 4.53. Besides, the inhibition at 10 µM on CYP1A2 [2] is 5.1%; on CYP2D6 it was 12.9%. The “CYP1A2 Induction fold relative to blank control” value in the data set with CYP1A2 [3] is recorded as 0.8.

`CCCC[C@](C)(CO)Nc1nc(N)nc2cc(-c3cc(=O)n(C)cc3CN3CCCCC3)ccc12` [Example 8]: in the data set with CYP2B6, the “CYP2B6 Induction fold relative to blank control” value worked out at 0.6 and the “CYP2B6 Induction percentage relative to positive control (%)” value was −4.1%. Besides, half-maximal cytotoxicity in data set [1] (CC50 at 24 h) was put at 98.3 µM. For the same compound, on hTLR7, the negative logarithm of the EC50 (pEC50) is below 4.00. Besides, the inhibition at 10 µM at CYP1A2 [2] was -10.5%. The “CYP1A2 Induction fold relative to blank control” value in the data set with CYP1A2 [3] was found to be 0.7. Moreover, the inhibition at 10 µM on CYP2D6 amounted to 18.1%.

These data come from patent US20250163051A1, “PYRIMIDO AROMATIC RING COMPOUND AND USE THEREOF IN DRUG” (SUNSHINE LAKE PHARMA CO., LTD., priority 2022, published 2025).
